What was measured:
TBF1 promoter = experiment: Induction of the TBF1 promoter by chemical inducers
Arabidopsis seedlings [1] = experiment: Seedling growth (fresh weight) on MS media supplemented with SA, elf18 or flg22; type: in vivo; conditions: WT plants; 10 days on MS with increasing concentrations of SA or 10 μM elf18
Method: (Panel 11A) Fresh weight of ten seedlings grown for 10 days on plates with MS growth media (Ctrl), MS supplemented with increasing concentrations of SA or 10 μM elf18. Error bars represent the standard deviation of three replicates. This experiment was repeated three times with similar results. Statistical analysis was performed using the Student's t-test, *, p-value<0.05, **, p-value<0.01, ***, p-value≤0.001.
Fresh weight of ten seedlings grown for 10 days on plates with regular MS growth media (−f1g22) or MS supplemented with 10 μM f1g22 (+f1g22). Error bars represent standard deviation of three replicates. The experiment was repeated three times with similar results.

Psm ES4326 = experiment: Bacterial infection assay: SA- and MAMP-induced resistance to Psm ES4326 in Arabidopsis plants; type: in vivo, Pseudomonas syringae pv. maculicola; conditions: 1 mM SA spray 24 hrs prior to infection, Psm ES4326 OD600nm=0.001
Method: Infection of Arabidopsis plants with Pseudomonas syringae pv. maculicola (Psm) ES4326 was performed as described previously. To test for enhanced disease susceptibility, a bacterial suspension at OD600nm=0.0001 was infiltrated into 2-3 leaves per plant and 12 plants/genotype. Bacterial growth was quantified 3 days later. To test for SAR and MAMP-induced resistance, plants were pre-treated with relevant compounds (1 mM SA, spray 24 hrs prior to infection; 10 μM elf18, infiltration 2 hrs prior to infection; 10 μM flg22, infiltration 2 hrs prior to infection), and subsequently inoculated with Psm ES4326 (OD600nm=0.001) into 2-3 leaves per plant and 12 plants/genotype/treatment. Sampling was performed 3 days post inoculation.

Arabidopsis seedlings [2] = experiment: Tunicamycin sensitivity assay (seedling recovery/survival); type: in vivo; conditions: two-day treatment with tunicamycin at 300 μg/L, measured 10 days later
Method: (Panel 11B) Seedling recovery after a two-day treatment with the UPR inducer tunicamycin at 300 μg/L was measured 10 days later by counting the percentage of surviving seedlings (left), and by phenotype observations (right). Error bars represent standard deviation of three replicates. This experiment was repeated five times with similar results. Statistical analysis was performed using the Student's t-test, ***, p-value≤0.001.
This assay was performed as described in earlier studies.

`C=C` [ethylene] was tested, and the “induction of the TBF1 promoter” value (TBF1 promoter) was “shown to induce the TBF1 promoter”.

In the case of `CC1=CC(=O)CC(C)(C)[C@@]1(O)/C=C/C(C)=C\C(=O)O` [abscisic acid], the “induction of the TBF1 promoter” value (TBF1 promoter) is reported as “shown to induce the TBF1 promoter”.

`OC[C@@H](O)[C@@H](O)[C@H](O)[C@H](O)CO` [mannitol] was tested, and the “induction of the TBF1 promoter” value (TBF1 promoter) was “shown to induce the TBF1 promoter”.

In the case of `C[C@@H]1C[C@@H]([C@H](O)CC2CC(=O)NC(=O)C2)C(=O)[C@@H](C)C1` [cycloheximide], the “induction of the TBF1 promoter” value (TBF1 promoter) is reported as “shown to induce the TBF1 promoter”.

`O=C(O)c1ccccc1O` [SA, salicylic acid] was tested, and the “induction of the TBF1 promoter” value (TBF1 promoter) was “shown to induce the TBF1 promoter”, the “growth of seedlings (fresh weight)” value (Arabidopsis seedlings [1]) was “significantly inhibited” and the “reduction in Psm ES4326 growth in response to induction by SA” value (Psm ES4326; WT plants, 3 days post inoculation) was roughly 2 log. The “reduction in Psm ES4326 growth in response to induction by SA” value (Psm ES4326; tbf1 mutant) was “less than 1 log”.

In the case of tunicamycin, the seedling survival rate (Arabidopsis seedlings [2]; WT) is reported as roughly 60% and the seedling survival rate (Arabidopsis seedlings [2]; tbf1 mutant) is reported as roughly 20%.

`CC/C=C\CC1C(=O)CCC1CC(=O)OC` (centres unmarked) [methyl ester of jasmonic acid] was tested, and the “induction of the TBF1 promoter” value (TBF1 promoter) was “shown to induce the TBF1 promoter”.

For `[Cl-].[Na+]` [NaCl], the “induction of the TBF1 promoter” value (TBF1 promoter) was “shown to induce the TBF1 promoter”.

For `CC/C=C\C[C@H]1C(=O)CC[C@@H]1CC(=O)O` [jasmonic acid], the “induction of the TBF1 promoter” value (TBF1 promoter) was “shown to induce the TBF1 promoter”.

`O=[N+]([O-])[O-].[Ag+]` [AgNO3] was tested, and the “induction of the TBF1 promoter” value (TBF1 promoter) was “shown to induce the TBF1 promoter”.

From patent US10584346B2, “HSF-like transcription factor, TBF1, is a major molecular switch for growth-to-defense transition in plants” (Duke University, priority 2011, dated 2020)
